Data as given in US20150291565A1, “INDOLE COMPOUNDS AND THEIR USE AS ANTIMICROBIALS” (Memorial Sloan-Kettering Cancer Center, priority 2012, published 2015).
Converted amounts (≈) assume the structure as drawn. Like-named read-outs stand apart in the source and are kept apart here.

Key:
MRSA = assay: Disk diffusion assay, zone of inhibition, MRSA; assay type: cell-based, Staphylococcus aureus; settings: disk diffusion zone of inhibition
M. smegmatis (mc2155) = assay: Disk diffusion assay, zone of inhibition, M. smegmatis; assay type: cell-based; settings: disk diffusion zone of inhibition
[1] = tested on: S. aureus ATCC 29213 (MSSA); assay: Broth dilution MIC, S. aureus ATCC 29213; assay type: cell-based; settings: Staphylococcus aureus
[2] = tested on: S. aureus ATCC 33591 (MRSA); assay: Broth dilution MIC, S. aureus ATCC 33591; assay type: cell-based; settings: for MIC: Staphylococcus aureus
S. aureus BAA-39 (MDR) = assay: Broth dilution MIC, S. aureus BAA-39; assay type: cell-based; settings: for MIC: Staphylococcus aureus, BAA39
[3] = tested on: S. pneumoniae ATCC 6301 (PSSP); assay: Broth dilution MIC, S. pneumoniae ATCC 6301; assay type: cell-based; settings: Streptococcus pneumoniae
[4] = tested on: S. pneumoniae ATCC 700674 (PRSP); assay: Broth dilution MIC, S. pneumoniae ATCC 700674; assay type: cell-based; settings: Streptococcus pneumoniae
[5] = tested on: E. faecalis ATCC 29212 (VRE); assay: Broth dilution MIC, E. faecalis ATCC 29212; assay type: cell-based
[6] = tested on: E. faecium ATCC 700221 (VRE); assay: Broth dilution MIC, E. faecium ATCC 700221; assay type: cell-based
E. faecium CT-26 = assay: Broth dilution MIC, E. faecium CT-26; assay type: cell-based; settings: Enterococcus faecium
E. coli ECM 1694 = assay: Broth dilution MIC, E. coli ECM 1694; assay type: cell-based; settings: Escherichia coli
E. coli ATCC 25922 = assay: Broth dilution MIC, E. coli ATCC 25922; assay type: cell-based; settings: Escherichia coli
K. pneumoniae ATCC 13883 = assay: Broth dilution MIC, K. pneumoniae ATCC 13883; assay type: cell-based; settings: Klebsiella pneumoniae
K. pneumoniae ATCC 51503 = assay: Broth dilution MIC, K. pneumoniae ATCC 51503; assay type: cell-based; settings: Klebsiella pneumoniae
P. aeruginosa ATCC 9027 = assay: Broth dilution MIC, P. aeruginosa ATCC 9027; assay type: cell-based; settings: Pseudomonas aeruginosa
C. albicans ATCC 14053 = assay: Broth dilution MIC, C. albicans ATCC 14053; assay type: cell-based; settings: Candida albicans, ATCC14053; Table 1; range 64 down to 0.12 μg/ml
Procedure: In vitro Anti-bacterial & Anti-fungal Activity Assay: All test compounds were prepared as 6.4 mg/ml stock solutions in DMSO and further diluted according to the NCCLS M7-A6 (Page 5) document with sterile water or appropriate diluent. A working stock of 256 μg/ml was used to do 1:2 serial dilutions in 96-well plates. […] The inoculums were prepared by making a direct sterile water suspension of isolated colonies from 18 to 24 hr agar plates for all organisms (Mueller Hinton, Blood Agar or SDA plates). Each bacterial suspension was adjusted to read between 0.09 and 0.11 absorbance at 620 nm. […] These were further diluted 1/100 in appropriate broth for inoculating the 96-well plates. The C. albicans suspension was adjusted to read between 70 and 75% Transmittance at 530 nm and then diluted 1/500 in RPMI+MOPS broth. All aerobic bacterial and fungal plates were incubated for 18 hrs. at 35° C. […] Plates were read using a Beckman Automated Plate Reader at 650 nm. Readings were confirmed by visual examination of plates. (See Table 1, Table 2, Table 3, and Table 4). […] It is important to note that positive results against C. albicans are often indicative of broad spectrum antifungal activity, while negative results are not necessarily conclusory of a lack of activity against other fungus.

[7] = Table 1, range 64 down to 0.12 μg/ml, read-out: MIC S. aureus ATCC 29213
[8] = Table 2, broth dilution MIC in ug/ml, read-out: MIC S aureus ATCC 29213 MSSA
[9] = Table 1, range 64 down to 0.12 μg/ml, read-out: MIC S. aureus ATCC 33591
[10] = Table 2, broth dilution MIC in ug/ml, read-out: MIC S aureus ATCC 33591 MRSA
[11] = Table 1, range 64 down to 0.12 μg/ml, read-out: MIC S. aureus BAA-39
[12] = Table 2, broth dilution MIC in ug/ml, read-out: MIC S aureus BAA-39 MDR
[13] = ATCC6301, Table 1, range 64 down to 0.12 μg/ml, read-out: MIC S. pneumoniae ATCC 6301
[14] = ATCC6301, Table 2, broth dilution MIC in ug/ml, read-out: MIC S pneumonia ATCC 6301 PSSP
[15] = Table 1, range 64 down to 0.12 μg/ml, read-out: MIC S. pneumoniae ATCC 700674
[16] = Table 2, broth dilution MIC in ug/ml, read-out: MIC S pneumonia ATCC 700674 PRSP
[17] = Enterococcus faecalis, Table 1, range 64 down to 0.12 μg/ml, read-out: MIC E. faecalis ATCC 29212
[18] = Table 2, broth dilution MIC in ug/ml, read-out: MIC E faecalis ATCC 29212 VRE
[19] = Enterococcus faecium, Table 1, range 64 down to 0.12 μg/ml, read-out: MIC E. faecium ATCC 700221
[20] = Table 2, broth dilution MIC in ug/ml, read-out: MIC E faecium ATCC 700221 VRE
[21] = CT26, Table 1, range 64 down to 0.12 μg/ml, read-out: MIC E. faecium CT-26
[22] = CT26, Table 2, broth dilution MIC in ug/ml, read-out: MIC E faecium CT-25
[23] = ECM1694, Table 1, range 64 down to 0.12 μg/ml, read-out: MIC E. coli ECM 1694
[24] = ECM1694, Table 2, broth dilution MIC in ug/ml, read-out: MIC E. coli ECM 1693
[25] = ATCC 25921 / ATCC 25922, Table 2, broth dilution MIC in ug/ml, read-out: MIC E. coli ATCC 25921
[26] = ATCC25922, Table 1, range 64 down to 0.12 μg/ml, read-out: MIC E. coli ATCC 25922
[27] = ATCC13883, Table 1, range 64 down to 0.12 μg/ml, read-out: MIC K. pneumoniae ATCC 13883
[28] = ATCC13883, Table 2, broth dilution MIC in ug/ml, read-out: MIC K pneumonia ATCC 13883
[29] = ATCC51503, Table 1, range 64 down to 0.12 μg/ml, read-out: MIC K. pneumoniae ATCC 51503
[30] = ATCC51503, Table 2, broth dilution MIC in ug/ml, read-out: MIC K pneumonia ATCC 51503
[31] = ATCC 9026 / ATCC 9027, Table 2, broth dilution MIC in ug/ml, read-out: MIC P aeruginosa ATCC 9026
[32] = ATCC9027, Table 1, range 64 down to 0.12 μg/ml, read-out: MIC P. aeruginosa ATCC 9027

| MIC [1, 7] | MIC [1, 8] | MIC [2, 9] | MIC [2, 10] | MIC (S. aureus BAA-39 (MDR); [11]) | MIC (S. aureus BAA-39 (MDR); [12]) | MIC [3, 13] | MIC [3, 14] | MIC [4, 15] | MIC [4, 16] | MIC [5, 17] | MIC [5, 18] | MIC [6, 19] | MIC [6, 20] | MIC (E. faecium CT-26; [21]) | MIC (E. faecium CT-26; [22]) | MIC (E. coli ECM 1694; [23]) | MIC (E. coli ECM 1694; [24]) | SMILES | Zone Size MRSA (MRSA) | Zone Size M. smegmatis (M. smegmatis (mc2155)) | also measured |
| --- | --- | --- | --- | --- | --- | --- | --- | --- | --- | --- | --- | --- | --- | --- | --- | --- | --- | --- | --- | --- | --- |
| 2 µg/mL (≈ 5.66 µM) | 1 µg/mL (≈ 2.83 µM) | 1 µg/mL (≈ 2.83 µM) | 1 µg/mL (≈ 2.83 µM) | 1 µg/mL (≈ 2.83 µM) | 1 µg/mL (≈ 2.83 µM) | ≤ 0.12 µg/mL | 0.06 µg/mL (≈ 0.17 µM) | 0.5 µg/mL (≈ 1.41 µM) | 0.5 µg/mL (≈ 1.41 µM) | 0.5 µg/mL (≈ 1.41 µM) | 0.5 µg/mL (≈ 1.41 µM) | 0.25 µg/mL (≈ 0.707 µM) | 0.25 µg/mL (≈ 0.707 µM) | 0.25 µg/mL (≈ 0.707 µM) | 0.25 µg/mL (≈ 0.707 µM) | ≤ 0.12 µg/mL | 0.12 µg/mL (≈ 0.34 µM) | c1cncc(Nc2ccc(-c3cc4ccc(C5=NCCN5)cc4[nH]3)cc2)c1 [SKI-4] | 14 mm | 27.6 mm | MIC ([1]; Table 3, starting at 4 μg/ml, read-out: MIC S. aureus ATCC 29213): 1 µg/mL (≈ 2.83 µM); MIC S. aureus ATCC 33591 ([2]; Table 3, starting at 4 μg/ml): 1 µg/mL (≈ 2.83 µM); MIC S. aureus BAA-39 (S. aureus BAA-39 (MDR); Table 3, starting at 4 μg/ml): 1 µg/mL (≈ 2.83 µM); MIC ([3]; ATCC6301, Table 3, starting at 4 μg/ml, read-out: MIC S. pneumoniae ATCC 6301): 0.06 µg/mL (≈ 0.17 µM); MIC ([4]; Table 3, starting at 4 μg/ml, read-out: MIC S. pneumoniae ATCC 700674): 0.5 µg/mL (≈ 1.41 µM); MIC E. faecalis ATCC 29212 ([5]; Table 3, starting at 4 μg/ml): 0.5 µg/mL (≈ 1.41 µM); MIC ([6]; Enterococcus faecium, Table 3, starting at 4 μg/ml, read-out: MIC E. faecium ATCC 700221): 0.25 µg/mL (≈ 0.707 µM); MIC (E. faecium CT-26; CT26, Table 3, starting at 4 μg/ml, read-out: MIC E. faecium CT-26): 0.25 µg/mL (≈ 0.707 µM); MIC (E. coli ECM 1694; ECM1694, Table 3, starting at 4 μg/ml, read-out: MIC E. coli ECM 1694): 0.12 µg/mL (≈ 0.34 µM); MIC (E. coli ATCC 25922; [25]): 1 µg/mL (≈ 2.83 µM); MIC (E. coli ATCC 25922; [26]): 1 µg/mL (≈ 2.83 µM); MIC (K. pneumoniae ATCC 13883; [27]): > 64 µg/mL; MIC (K. pneumoniae ATCC 13883; [28]): 64 µg/mL (≈ 181 µM); MIC (K. pneumoniae ATCC 51503; [29]): > 64 µg/mL; MIC (K. pneumoniae ATCC 51503; [30]): 64 µg/mL (≈ 181 µM); MIC (P. aeruginosa ATCC 9027; [31]): 64 µg/mL (≈ 181 µM); MIC (P. aeruginosa ATCC 9027; [32]): > 64 µg/mL; MIC (C. albicans ATCC 14053): > 64 µg/mL |
| 8 µg/mL (≈ 22.3 µM) | 8 µg/mL (≈ 22.3 µM) | 8 µg/mL (≈ 22.3 µM) | 8 µg/mL (≈ 22.3 µM) | 8 µg/mL (≈ 22.3 µM) | 8 µg/mL (≈ 22.3 µM) | 32 µg/mL (≈ 89 µM) | 32 µg/mL (≈ 89 µM) | > 64 µg/mL | 64 µg/mL (≈ 178 µM) | > 64 µg/mL | 64 µg/mL (≈ 178 µM) | > 64 µg/mL | 64 µg/mL (≈ 178 µM) | 64 µg/mL (≈ 178 µM) | 64 µg/mL (≈ 178 µM) | 4 µg/mL (≈ 11.1 µM) | 4 µg/mL (≈ 11.1 µM) | c1cc(-c2cc3ccc(C4=NCCN4)cc3[nH]2)ccc1NC1CCNCC1 [SKI-6] | 15 mm | 16.3 mm | MIC (E. coli ATCC 25922; [25]): 32 µg/mL (≈ 89 µM); MIC (E. coli ATCC 25922; [26]): 32 µg/mL (≈ 89 µM); MIC (K. pneumoniae ATCC 13883; [27]): > 64 µg/mL; MIC (K. pneumoniae ATCC 13883; [28]): 64 µg/mL (≈ 178 µM); MIC (K. pneumoniae ATCC 51503; [29]): > 64 µg/mL; MIC (K. pneumoniae ATCC 51503; [30]): 64 µg/mL (≈ 178 µM); MIC (P. aeruginosa ATCC 9027; [31]): 64 µg/mL (≈ 178 µM); MIC (P. aeruginosa ATCC 9027; [32]): > 64 µg/mL; MIC (C. albicans ATCC 14053): > 64 µg/mL |
